Measured values taken from US8263562B2, “Peptides for preventing or treating liver damage” (priority 2006, dated 2012).
Where two headings read alike, the source gives them in different places.

Assays:
[1] = test system: Sera of Patients with HCV (anti-HCV antibody-positive sera); experiment: Indirect ELISA, reactivity of the peptides to anti-HCV antibody-positive sera; type: binding, human
Method: Anti-HCV antibody-positive sera: randomly obtained from inpatients infected with HCV in the Liberation Army 302 Hospital from 2000 to 2001.
(§1) The reactivity of the individual peptide of the invention to sera was detected by standard indirect ELISA technology using Model DG3022 Enzyme-Linked Immunoassay Analyzer (purchased from Perkin Elmer Corporation). 10 μg of Peptide A, Peptide B, Peptide C, and Peptide Conjugate A were added respectively into the basic coating buffer (0.1 mol/L NaHCO3, 35 μl; 0.1 mol/L Na2CO3, 15 μl; H2O, 50 μl), and then transferred into the wells of polypropylene/ethylene microtiter plate, and placed at 4° C. overnight. After adding 120 μl of FCS-PBS, each well was blocked at 37° C. for 2 hours. Sera (dilution of 1:100) were then added to the wells, and incubated at 37° C. for 1 hour. Goat anti-human IgGs (dilution of 1:1000) (purchased from Sino-American Biotechnology Company, Beijing) were then added to the wells, and incubated at 37° C. for 1 hour. 50 μl of Solution A and Solution B (purchased from Beijing Kewei Reagent Company) were added to every well, placed in the dark for 5 min, and then the absorbance at 450 nm was measured.

[2] = test system: sera of patients with HBV; experiment: Indirect ELISA, reactivity of the peptides to sera of patients with Hepatitis B; type: binding, human; conditions: sera of 10 patients with HBV
Method: Sera of patients with Hepatitis B (HBV): obtained from inpatients with Hepatitis B in the Liberation Army 302 Hospital, who was positive for the surface antigen of Hepatitis B virus as assayed.
as §1

[3] = test system: sera of healthy donors; experiment: Indirect ELISA, reactivity of the peptides to control sera of healthy donors; type: binding, human; conditions: sera of 10 healthy donors
Method: Control sera: obtained from healthy blood donors, who had normal blood indexes in each assay.
as §1

[4] = test system: IL-4; experiment: Level of IL-4 in sera of immunized mice by ELISA; type: in vivo, BALB/c Mice; conditions: first day after the fourth immunization
Method: (§2) BALB/c Mice, all of which are male, 6 week old, and purchased from the Laboratory Animal Center of Academy Of Military Medical Sciences, Beijing, were divided into 4 groups as follows with 5 mice in each group: (1) the control group; (2) the Peptide A group, immunized with Peptide A; (3) the Peptide B group, immunized with Peptide B; and (4) the Peptide C group, immunized with Peptide C.
(§3) 50 μl of the peptide (100 μg/μl) used in the corresponding group and 50 μl of Freund's complete adjuvant (GIBCOBRL Corp.) were mixed thoroughly with a microstirrer, and the mixture was injected into the claw pad of a mouse, thereby the first immunization was performed for each of the mice. 14 days later, booster immunization was performed in the same manner as the first immunization with 50 μl of the peptide (100 μg/μl) used in the corresponding group and 50 μl of Freund's complete adjuvant (GIBCOBRL Corp.). 14 days later, another booster immunization was performed in the same manner. 14 days later, boost immunization was performed by injecting 100 μg of the peptide dissolved in 200 μl PBS into the mouse intramuscularly. During the process of immunization, only the corresponding adjuvant and PBS were injected for the control group. At the first day after the fourth immunization, mice were sacrificed and sera were collected.
(§4) According to the specification of the manufacturer, the levels of cytokines (i.e., IL-4, IL-10, and γ-IFN) in sera of the above immunized mice were detected respectively by using IL-4 Quantikine ELASA Kit, IL-10 Quantikine ELASA Kit, and γ-IFN Quantikine ELASA Kit (all of which are purchased from R&D, Inc.).

[5] = test system: IL-10; experiment: Level of IL-10 in sera of immunized mice by ELISA; type: in vivo, BALB/c Mice; conditions: first day after the fourth immunization
Method: as §2, §3, §4

[6] = test system: γ-IFN; experiment: Level of γ-IFN in sera of immunized mice by ELISA; type: in vivo, BALB/c Mice; conditions: first day after the fourth immunization
Method: as §2, §3, §4

[7] = test system: BCG vaccine and lipopolysaccharide-induced immunological liver damage; type: in vivo, Wistar Rats; conditions: for pathological condition of liver (score) versus model group: P<0.05
[8] = test system: tetrachloromethane-induced liver damage; experiment: Tetrachloromethane-induced liver damage of mice; type: in vivo, BALB/c mice
Method: At the first before the first immunization, 0.05 ml CCl4 (available from Shanghai Linfen Chemical Reagent Co., Ltd.) was administered via subcutaneous injection to each mouse of all groups other than the blank control group; and the equivalent volume of physiological saline was injected for the blank control group.
Mice in the high dose group, the medium dose group and the low dose group were immunized as follows: the first immunization was performed by the following process: 1000 of Peptide A dissolved in physiological saline was mixed thoroughly with the equivalent volume of Freund's complete adjuvant, and then 0.2 ml of the resultant water-in-oil emulsion was administered via subcutaneous injection to each mouse, wherein the dosage of Peptide A contained in the emulsion was 250 μg/kg mouse body weight for the high dose group, 125 μg/kg mouse body weight for the medium dose group, and 62.5 μg/kg mouse body weight for the low dose group respectively. 14 days later, the second immunization was performed in the same dosage and manner as the first immunization except that, Freund's complete adjuvant was replaced by Freund's incomplete adjuvant. 14 days later, the third immunization was performed in the same dosage and manner as the first immunization except that, Freund's complete adjuvant was replaced by Freund's incomplete adjuvant. 14 days later, the fourth immunization was performed by the following process: 0.1 ml of Peptide A dissolved in physiological saline was administered without any adjuvants via intraperitoneal injection to each rat, wherein the dosage of Peptide A was 250 μg/kg mouse body weight for the high dose group, 125 μg/kg mouse body weight for the medium dose group, and 62.5 μg/kg mouse body weight for the low dose group respectively.
At the days of immunization for the high dose group, the medium dose group and the low dose group, starting at Day 0, the corresponding physiological saline was injected into each rat of the model group and the blank control group, for up to four times; meanwhile, the corresponding adjuvant and physiological saline were injected for the adjuvant control group, for up to four times.
At the first day before the fourth immunization, 0.05 ml CCl4 was administered via subcutaneous injection to each mouse of all groups other than the blank control group; and the equivalent volume of physiological saline was injected for the blank control group. At the second day after the fourth immunization, all of mice were sacrificed.
Just before sacrificing all mice, each rat was weighed, and then sacrificed by cervical dislocation. Then Blood was collected, before sera were isolated.

[9] = anti-HCV antibody-positive sera of 30 patients, sera dilution 1:100, 10 μg peptide coated
[10] = high, medium, low dosage (174, 87, 43.5 μg/kg) without adjuvants, subcutaneous, four immunizations, 12 h after LPS
[11] = high, medium, low dosage (250, 125, 62.5 μg/kg) with adjuvant, four immunizations, CCl4 subcutaneous

GQTYTSG [Peptide A]
reactivity to sera of patients with HCV compared to sera of patients with HBV and healthy donors ([1]; X^2-test): significantly react | Percentage of Positive Cases (%) [1, 9]: 43% | The Number of Positive Cases [1, 9]: 13 | reactivity in ELISA Assay to sera of patients with HBV [2]: negative | reactivity in ELISA Assay to sera of healthy donors [3]: negative | IL-4(pg/ml serum) [4]: 29.64 ± 4.9 pg/ml serum | IL-10(pg/ml serum) [5]: 27.94 ± 6.4 pg/ml serum | γ-IFN(pg/ml serum) [6]: 23.46 ± 5.9 pg/ml serum | pathological condition of liver (score) versus model group ([7]; high and medium dosage (174, 87 μg/kg) without any adjuvants): significant alleviation | level of glutamic-oxalacetic transaminase (SGOT) in sera versus model group [7, 10]: significant decrease | level of glutamic-pyruvic transaminase (SGPT) in sera versus model group [7, 10]: significant decrease | pathological condition of liver (score) versus model group ([7]; low dosage (43.5 μg/kg) with adjuvant): significant alleviation | protective effect on acute immunological liver damage (SGPT, SGOT) ([7]; low dose & adjuvant group, 43.5 μg/kg): protective effect | tetrachloromethane-induced hepatomegaly of mice ([8]; 250 μg/kg mouse body weight): significant reduction | pathological conditions of the liver tissues (score) versus model group ([8]; high dose group, 250 μg/kg with adjuvant): alleviated significantly | level of glutamic-oxalacetic transaminase (SGOT) in sera versus model group [8, 11]: significant decrease | level of glutamic-pyruvic transaminase (SGPT) in sera versus model group [8, 11]: significant decrease
